# Experimental data taken from doi:10.1101/2023.10.20.563248v1 (biorxiv, 2023).
# Legend:
# Settings in all cases: 1 µM; inhibitor
# JNK1 = JNK1 (Homo sapiens, UniProt P45983)
# PIM1 = PIM1 (Homo sapiens, UniProt P11309)
# STK17A = STK17A (Homo sapiens, UniProt Q9UEE5)
# PKCa = PKCa (Homo sapiens, UniProt P17252)
# IKKb = IKKb (Homo sapiens, UniProt O14920)
# GRK4 = GRK4 (Homo sapiens, UniProt P32298)
# PKCd = PKCd (Homo sapiens, UniProt Q05655)
# MAPKAPK3 = MAPKAPK3 (Homo sapiens, UniProt Q16644)
# CDK2 = CDK2 (Homo sapiens, UniProt P24941)
# ROS = ROS (Homo sapiens, UniProt P08922)
# CK1g2 = CK1g2 (Homo sapiens, UniProt P78368)
# CDC42BPA = CDC42BPA (Homo sapiens, UniProt Q5VT25)
# ACVR1 = ACVR1 (Homo sapiens, UniProt Q04771)
# ERK5 = ERK5 (Homo sapiens, UniProt Q13164)
# EEF2K = EEF2K (Homo sapiens, UniProt O00418)
# CDK17 = CDK17 (Homo sapiens, UniProt Q00537)
# RPS6KB2 = RPS6KB2 (Homo sapiens, UniProt Q9UBS0)
# CDK4 = CDK4 (Homo sapiens, UniProt P11802)
# TTK = TTK (Homo sapiens, UniProt P33981)
# ARK5 = ARK5 (Homo sapiens, UniProt O60285)
# ACK1 = ACK1 (Homo sapiens, UniProt Q07912)
# MARK3 = MARK3 (Homo sapiens, UniProt P27448)
# MST1 = MST1 (Homo sapiens, UniProt Q13043)
# NDR1 = NDR1 (Homo sapiens, UniProt Q15208)
# JNK2 = JNK2 (Homo sapiens, UniProt P45984)
# ERK2 = ERK2 (Homo sapiens, UniProt P28482)
# MST2 = MST2 (Homo sapiens, UniProt Q13188)
# TYRO3 = TYRO3 (Homo sapiens, UniProt Q06418)
# RON = RON (Homo sapiens, UniProt Q04912)
# IRAK4 = IRAK4 (Homo sapiens, UniProt Q9NWZ3)
# TXK = TXK (Homo sapiens, UniProt P42681)
# Sequence of MAPKAPK3 (Q16644 whole entry): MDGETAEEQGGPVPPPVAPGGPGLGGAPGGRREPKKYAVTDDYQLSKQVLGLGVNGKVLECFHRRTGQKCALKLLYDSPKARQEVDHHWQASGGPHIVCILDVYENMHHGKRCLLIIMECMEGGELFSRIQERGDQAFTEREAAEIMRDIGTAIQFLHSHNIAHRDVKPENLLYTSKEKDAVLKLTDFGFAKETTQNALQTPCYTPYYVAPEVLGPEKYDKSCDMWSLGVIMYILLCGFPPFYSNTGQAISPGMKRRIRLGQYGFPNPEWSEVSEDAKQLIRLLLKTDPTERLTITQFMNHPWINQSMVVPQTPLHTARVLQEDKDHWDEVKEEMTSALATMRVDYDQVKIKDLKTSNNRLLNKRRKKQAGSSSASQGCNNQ
# Sequence of GRK4 (P32298 whole entry): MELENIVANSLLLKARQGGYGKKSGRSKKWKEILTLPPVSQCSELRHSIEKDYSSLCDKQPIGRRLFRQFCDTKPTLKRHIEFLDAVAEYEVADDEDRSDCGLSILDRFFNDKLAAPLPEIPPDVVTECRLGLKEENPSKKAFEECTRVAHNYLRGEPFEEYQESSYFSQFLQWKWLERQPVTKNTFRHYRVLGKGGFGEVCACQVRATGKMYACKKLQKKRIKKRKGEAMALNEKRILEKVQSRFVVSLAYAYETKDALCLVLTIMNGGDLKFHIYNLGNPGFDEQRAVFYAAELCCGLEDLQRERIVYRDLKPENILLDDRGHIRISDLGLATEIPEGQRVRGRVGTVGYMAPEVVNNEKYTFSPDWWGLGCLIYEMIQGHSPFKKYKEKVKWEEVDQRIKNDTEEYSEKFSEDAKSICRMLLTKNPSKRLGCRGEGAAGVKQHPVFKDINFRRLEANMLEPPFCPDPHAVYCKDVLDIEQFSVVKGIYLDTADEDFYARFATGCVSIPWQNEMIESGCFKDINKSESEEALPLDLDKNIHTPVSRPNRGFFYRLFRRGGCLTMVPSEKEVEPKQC
# Sequence of CDC42BPA (Q5VT25 whole entry): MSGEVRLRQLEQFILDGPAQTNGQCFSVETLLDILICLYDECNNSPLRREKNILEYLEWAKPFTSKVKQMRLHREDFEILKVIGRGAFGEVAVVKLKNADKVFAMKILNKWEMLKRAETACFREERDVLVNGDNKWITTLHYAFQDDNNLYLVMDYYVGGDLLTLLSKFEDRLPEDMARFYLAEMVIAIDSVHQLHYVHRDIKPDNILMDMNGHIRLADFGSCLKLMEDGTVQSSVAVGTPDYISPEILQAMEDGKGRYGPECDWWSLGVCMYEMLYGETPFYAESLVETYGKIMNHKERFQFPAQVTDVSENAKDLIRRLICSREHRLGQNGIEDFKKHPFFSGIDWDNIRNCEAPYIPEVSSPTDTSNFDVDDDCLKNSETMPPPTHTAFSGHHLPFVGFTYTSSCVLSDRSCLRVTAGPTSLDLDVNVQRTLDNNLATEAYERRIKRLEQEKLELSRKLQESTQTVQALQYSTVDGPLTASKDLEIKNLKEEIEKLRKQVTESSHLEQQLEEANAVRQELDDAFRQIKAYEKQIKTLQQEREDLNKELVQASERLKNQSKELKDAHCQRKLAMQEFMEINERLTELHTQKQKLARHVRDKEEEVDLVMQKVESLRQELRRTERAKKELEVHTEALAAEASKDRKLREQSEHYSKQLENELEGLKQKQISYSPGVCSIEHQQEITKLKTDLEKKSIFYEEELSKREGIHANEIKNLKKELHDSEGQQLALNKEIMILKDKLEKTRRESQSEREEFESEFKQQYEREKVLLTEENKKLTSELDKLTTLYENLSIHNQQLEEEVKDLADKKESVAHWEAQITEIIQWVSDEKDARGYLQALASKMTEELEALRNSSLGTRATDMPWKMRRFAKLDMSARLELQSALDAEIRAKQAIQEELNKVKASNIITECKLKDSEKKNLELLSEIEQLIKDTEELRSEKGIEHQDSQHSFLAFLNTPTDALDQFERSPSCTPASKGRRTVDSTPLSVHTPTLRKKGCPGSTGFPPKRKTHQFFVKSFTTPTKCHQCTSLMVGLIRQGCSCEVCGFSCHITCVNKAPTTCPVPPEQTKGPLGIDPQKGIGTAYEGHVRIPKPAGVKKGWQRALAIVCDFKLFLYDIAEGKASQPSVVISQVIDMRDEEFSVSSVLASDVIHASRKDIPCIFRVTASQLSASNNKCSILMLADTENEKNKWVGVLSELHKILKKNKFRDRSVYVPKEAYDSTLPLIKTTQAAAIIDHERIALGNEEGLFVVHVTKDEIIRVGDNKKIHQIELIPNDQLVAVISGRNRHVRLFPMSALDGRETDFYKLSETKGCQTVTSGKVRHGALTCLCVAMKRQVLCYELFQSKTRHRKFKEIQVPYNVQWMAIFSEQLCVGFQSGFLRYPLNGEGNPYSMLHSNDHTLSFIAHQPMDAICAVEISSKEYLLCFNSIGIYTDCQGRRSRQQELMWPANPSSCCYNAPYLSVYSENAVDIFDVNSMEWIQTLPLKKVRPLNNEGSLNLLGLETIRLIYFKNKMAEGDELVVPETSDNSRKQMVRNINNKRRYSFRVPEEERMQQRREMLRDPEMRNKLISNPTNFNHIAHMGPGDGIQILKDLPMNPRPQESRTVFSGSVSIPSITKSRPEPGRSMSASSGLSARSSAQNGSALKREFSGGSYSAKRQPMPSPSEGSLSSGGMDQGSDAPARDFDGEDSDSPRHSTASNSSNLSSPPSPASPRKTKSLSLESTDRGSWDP
# Sequence of IRAK4 (Q9NWZ3 whole entry): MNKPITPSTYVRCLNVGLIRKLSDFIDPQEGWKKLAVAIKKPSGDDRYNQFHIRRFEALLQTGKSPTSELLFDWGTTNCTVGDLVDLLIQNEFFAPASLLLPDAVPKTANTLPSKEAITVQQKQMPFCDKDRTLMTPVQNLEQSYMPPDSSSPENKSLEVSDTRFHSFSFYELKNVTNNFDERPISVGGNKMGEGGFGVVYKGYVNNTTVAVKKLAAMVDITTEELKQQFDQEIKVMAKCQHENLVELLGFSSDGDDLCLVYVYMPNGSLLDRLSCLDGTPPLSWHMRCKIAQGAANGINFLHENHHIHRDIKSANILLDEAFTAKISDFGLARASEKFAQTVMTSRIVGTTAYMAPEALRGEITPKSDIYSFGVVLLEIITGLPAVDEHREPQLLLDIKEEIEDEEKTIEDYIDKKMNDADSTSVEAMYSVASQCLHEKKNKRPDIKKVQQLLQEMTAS
# Sequence of NDR1 (Q15208 whole entry): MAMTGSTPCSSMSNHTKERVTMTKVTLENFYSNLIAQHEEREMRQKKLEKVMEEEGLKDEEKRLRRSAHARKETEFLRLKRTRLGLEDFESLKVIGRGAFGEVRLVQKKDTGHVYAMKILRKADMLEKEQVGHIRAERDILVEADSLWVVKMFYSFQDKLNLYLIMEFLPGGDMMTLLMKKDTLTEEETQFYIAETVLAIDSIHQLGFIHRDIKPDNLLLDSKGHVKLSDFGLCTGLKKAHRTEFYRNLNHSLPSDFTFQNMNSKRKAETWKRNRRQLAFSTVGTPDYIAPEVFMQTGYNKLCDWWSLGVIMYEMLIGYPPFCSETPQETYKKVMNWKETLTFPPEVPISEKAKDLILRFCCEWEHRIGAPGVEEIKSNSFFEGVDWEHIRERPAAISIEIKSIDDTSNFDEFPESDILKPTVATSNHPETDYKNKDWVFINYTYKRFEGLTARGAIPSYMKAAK
# Sequence of CDK4 (P11802 whole entry): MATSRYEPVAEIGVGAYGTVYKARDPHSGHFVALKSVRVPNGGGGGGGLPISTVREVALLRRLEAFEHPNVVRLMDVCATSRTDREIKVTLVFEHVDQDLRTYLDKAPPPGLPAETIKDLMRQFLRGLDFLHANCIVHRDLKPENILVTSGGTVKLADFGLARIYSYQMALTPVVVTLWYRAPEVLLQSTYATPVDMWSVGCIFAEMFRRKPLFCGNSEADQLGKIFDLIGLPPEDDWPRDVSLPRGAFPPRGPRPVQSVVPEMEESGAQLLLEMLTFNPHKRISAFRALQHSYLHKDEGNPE
# Sequence of PIM1 (P11309 whole entry): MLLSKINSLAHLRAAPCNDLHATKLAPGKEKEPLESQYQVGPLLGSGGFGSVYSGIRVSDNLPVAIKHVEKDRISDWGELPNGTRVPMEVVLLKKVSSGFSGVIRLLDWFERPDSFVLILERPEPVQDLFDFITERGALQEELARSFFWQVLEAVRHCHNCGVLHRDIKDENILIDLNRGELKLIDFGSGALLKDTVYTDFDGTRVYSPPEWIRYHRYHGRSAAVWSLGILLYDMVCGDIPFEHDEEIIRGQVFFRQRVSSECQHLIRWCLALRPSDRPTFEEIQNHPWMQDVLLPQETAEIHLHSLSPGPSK
smiles,measurement,setting,value
"O=C1NCCCCCNc2nc(c3ccccc3n2)Nc2cc1[nH]n2 [21c, (Z)-3^1H-2,5,11-triaza-1(4,2)-quinazolina-3(3,5)-pyrazolacycloundecaphan-4-one]","21c Remaining activity, percent of control [%]",JNK1,95.6%
same,"21c Remaining activity, percent of control [%]",PIM1,101.3%
same,"21c Remaining activity, percent of control [%]",STK17A,103.5%
same,"21c Remaining activity, percent of control [%]",PKCa,107.7%
same,"21c Remaining activity, percent of control [%]",IKKb,94.0%
same,"21c Remaining activity, percent of control [%]",GRK4,112.1%
same,"21c Remaining activity, percent of control [%]",PKCd,91.4%
same,"21c Remaining activity, percent of control [%]",MAPKAPK3,95.7%
same,"21c Remaining activity, percent of control [%]",CDK2,103.0%
same,"21c Remaining activity, percent of control [%]",ROS,109.6%
same,"21c Remaining activity, percent of control [%]",CK1g2,109.6%
same,"21c Remaining activity, percent of control [%]",CDC42BPA,107.0%
same,"21c Remaining activity, percent of control [%]",ACVR1,81.0%
same,"21c Remaining activity, percent of control [%]",ERK5,93.4%
same,"21c Remaining activity, percent of control [%]",EEF2K,114.2%
same,"21c Remaining activity, percent of control [%]",CDK17,70.9%
same,"21c Remaining activity, percent of control [%]",RPS6KB2,99.0%
same,"21c Remaining activity, percent of control [%]",CDK4,84.5%
same,"21c Remaining activity, percent of control [%]",TTK,97.7%
same,"21c Remaining activity, percent of control [%]",ARK5,86.3%
same,"21c Remaining activity, percent of control [%]",ACK1,79.8%
same,"21c Remaining activity, percent of control [%]",MARK3,101.1%
same,"21c Remaining activity, percent of control [%]",MST1,105.6%
same,"21c Remaining activity, percent of control [%]",NDR1,86.7%
same,"21c Remaining activity, percent of control [%]",JNK2,84.0%
same,"21c Remaining activity, percent of control [%]",ERK2,90.7%
same,"21c Remaining activity, percent of control [%]",MST2,95.6%
same,"21c Remaining activity, percent of control [%]",TYRO3,77.8%
same,"21c Remaining activity, percent of control [%]",RON,94.5%
same,"21c Remaining activity, percent of control [%]",IRAK4,87.3%
same,"21c Remaining activity, percent of control [%]",TXK,98.2%
